According to ChEMBL document CHEMBL1201862, “PubChem BioAssay data set” (2004):
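Dose response: 5 concentrations. Exposure: 48 h. Format: 96-well plates. Endpoint: linear interpolation; highest concentration if not reached. The concentration for 50% growth inhibition is given as GI50.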 Calls of active or inactive are those of the source. Cut-off read from the data, not from the text of the source: active = GI50 up to about 1.1 µM and inactive = higher.

Columns and labels:
Assay in all cases: NCI-60 cell line screen, 48 h
HOP-62 = tested on: HOP-62
A549 = tested on: A549
BT-549 = tested on: BT-549
NCI-H522 = tested on: NCI-H522
K562 = tested on: K562
MDA-N = tested on: MDA-N
SR = tested on: SR
RXF 393 = tested on: RXF 393
HT-29 = tested on: HT-29
DU-145 = tested on: DU-145
MDA-MB-435 = tested on: MDA-MB-435
HCT-116 = tested on: HCT-116
MDA-MB-231 = tested on: MDA-MB-231
CAKI-1 = tested on: CAKI-1
SF-268 = tested on: SF-268
COLO 205 = tested on: COLO 205
NCI-H460 = tested on: NCI-H460
786-0 = tested on: 786-0
UACC-62 = tested on: UACC-62
Hs-578T = tested on: Hs-578T
HL-60 = tested on: HL-60
MCF7 = tested on: MCF7
UO-31 = tested on: UO-31
TK-10 = tested on: TK-10
SF-539 = tested on: SF-539
SN12C = tested on: SN12C
SF-295 = tested on: SF-295
HCC 2998 = tested on: HCC 2998
SK-OV-3 = tested on: SK-OV-3
SK-MEL-2 = tested on: SK-MEL-2
NCI-H23 = tested on: NCI-H23
ACHN = tested on: ACHN
SK-MEL-28 = tested on: SK-MEL-28
U-251 = tested on: U-251
CCRF-CEM = tested on: CCRF-CEM
PC-3 = tested on: PC-3
HOP-92 = tested on: HOP-92
OVCAR-3 = tested on: OVCAR-3
SK-MEL-5 = tested on: SK-MEL-5
NCI-H226 = tested on: NCI-H226
M14 = tested on: M14
NCI/ADR-RES = tested on: NCI/ADR-RES
IGROV-1 = tested on: IGROV-1
EKVX = tested on: EKVX
KM12 = tested on: KM12
SW-620 = tested on: SW-620
HCT-15 = tested on: HCT-15
OVCAR-8 = tested on: OVCAR-8
UACC-257 = tested on: UACC-257
LOX IMVI = tested on: LOX IMVI
SNB-75 = tested on: SNB-75
SNB-19 = tested on: SNB-19
A498 = tested on: A498
T47D = tested on: T47D
OVCAR-5 = tested on: OVCAR-5
Malme-3M = tested on: Malme-3M
OVCAR-4 = tested on: OVCAR-4
MOLT-4 = tested on: MOLT-4

CC1(C)CCC2(C(=O)O)C(O)CC3(C)C(=CCC4C5(C)CCC(OC6OCC(O)C(O)C6OC6OCC(O)C(O)C6OC6OCC(O)C(OC7OC(CO)C(O)C(O)C7O)C6O)C(C)(C)C5CCC43C)C2C1 (stereo not drawn)
GI50 (HOP-62): > 100 µM (inactive)
GI50 (A549): 33.7 µM (inactive)
GI50 (BT-549): 29.7 µM (inactive)
GI50 (NCI-H522): 19.8 µM (inactive)
GI50 (K562): 25.6 µM (inactive)
GI50 (MDA-N): 20.8 µM (inactive)
GI50 (SR): 4.21 µM (inactive)
GI50 (RXF 393): 20 µM (inactive)
GI50 (HT-29): > 100 µM (inactive)
GI50 (DU-145): > 100 µM (inactive)
GI50 (MDA-MB-435): 28.4 µM (inactive)
GI50 (HCT-116): > 100 µM (inactive)
GI50 (MDA-MB-231): > 100 µM (inactive)
GI50 (CAKI-1): > 100 µM (inactive)
GI50 (SF-268): 21.8 µM (inactive)
GI50 (COLO 205): > 100 µM (inactive)
GI50 (NCI-H460): > 100 µM (inactive)
GI50 (786-0): > 100 µM (inactive)
GI50 (UACC-62): 31.7 µM (inactive)
GI50 (Hs-578T): 28.1 µM (inactive)
GI50 (HL-60): 24.7 µM (inactive)
GI50 (MCF7): > 100 µM (inactive)
GI50 (UO-31): 17.3 µM (inactive)
GI50 (TK-10): > 100 µM (inactive)
GI50 (SF-539): > 100 µM (inactive)
GI50 (SN12C): 23.3 µM (inactive)
GI50 (SF-295): 20.3 µM (inactive)
GI50 (HCC 2998): 40.8 µM (inactive)
GI50 (SK-OV-3): 19.8 µM (inactive)
GI50 (SK-MEL-2): 24.5 µM (inactive)
GI50 (NCI-H23): 21 µM (inactive)
GI50 (ACHN): 35.1 µM (inactive)
GI50 (SK-MEL-28): 36.5 µM (inactive)
GI50 (U-251): 33.7 µM (inactive)
GI50 (CCRF-CEM): 31 µM (inactive)
GI50 (PC-3): 44.6 µM (inactive)
GI50 (HOP-92): 29.4 µM (inactive)
GI50 (OVCAR-3): > 100 µM (inactive)
GI50 (SK-MEL-5): > 100 µM (inactive)
GI50 (NCI-H226): 23.7 µM (inactive)
GI50 (M14): 40.1 µM (inactive)
GI50 (NCI/ADR-RES): > 100 µM (inactive)
GI50 (IGROV-1): > 100 µM (inactive)
GI50 (EKVX): 37.9 µM (inactive)
GI50 (KM12): 21.7 µM (inactive)
GI50 (SW-620): 39 µM (inactive)
GI50 (HCT-15): > 100 µM
GI50 (OVCAR-8): > 100 µM (inactive)
GI50 (UACC-257): 76.4 µM (inactive)
GI50 (LOX IMVI): 47.5 µM (inactive)
GI50 (SNB-75): 17.9 µM (inactive)
GI50 (SNB-19): 20 µM (inactive)
GI50 (A498): 26.9 µM (inactive)
GI50 (T47D): 97.1 µM (inactive)
GI50 (OVCAR-5): 33.8 µM (inactive)
GI50 (Malme-3M): 27.2 µM (inactive)
GI50 (OVCAR-4): 28.5 µM (inactive)

CCOC(=O)c1c(C)noc1/N=N/N(CCO)CCO
GI50 (HOP-62): 32.6 µM (inactive)
GI50 (A549): 36.8 µM (inactive)
GI50 (BT-549): 35.9 µM (inactive)
GI50 (NCI-H522): 24.2 µM (inactive)
GI50 (K562): 29 µM (inactive)
GI50 (MDA-N): 27.7 µM (inactive)
GI50 (SR): 19.9 µM (inactive)
GI50 (RXF 393): 15.1 µM (inactive)
GI50 (HT-29): 33.4 µM (inactive)
GI50 (DU-145): 49.7 µM (inactive)
GI50 (MDA-MB-435): 34 µM (inactive)
GI50 (HCT-116): 28.7 µM (inactive)
GI50 (MDA-MB-231): 38.9 µM (inactive)
GI50 (CAKI-1): 61 µM (inactive)
GI50 (SF-268): 54.3 µM (inactive)
GI50 (COLO 205): 23.1 µM (inactive)
GI50 (NCI-H460): 27.9 µM (inactive)
GI50 (786-0): 38.2 µM (inactive)
GI50 (UACC-62): 23.9 µM (inactive)
GI50 (Hs-578T): 63.4 µM (inactive)
GI50 (HL-60): 26.1 µM (inactive)
GI50 (MCF7): 29.1 µM (inactive)
GI50 (UO-31): 25.5 µM (inactive)
GI50 (TK-10): 56.1 µM (inactive)
GI50 (SN12C): 37.5 µM (inactive)
GI50 (MOLT-4): 21 µM (inactive)
GI50 (SF-295): 23.7 µM (inactive)
GI50 (HCC 2998): 22.3 µM (inactive)
GI50 (SK-OV-3): 57.4 µM (inactive)
GI50 (NCI-H23): 30.3 µM (inactive)
GI50 (ACHN): 29 µM (inactive)
GI50 (SK-MEL-28): 49.1 µM (inactive)
GI50 (U-251): 28.4 µM (inactive)
GI50 (CCRF-CEM): 16.9 µM (inactive)
GI50 (PC-3): 31.8 µM (inactive)
GI50 (HOP-92): 24.9 µM (inactive)
GI50 (OVCAR-3): 19.7 µM (inactive)
GI50 (SK-MEL-5): 15.7 µM (inactive)
GI50 (NCI-H226): 23.6 µM (inactive)
GI50 (M14): 49.5 µM (inactive)
GI50 (NCI/ADR-RES): 35.4 µM (inactive)
GI50 (IGROV-1): 36.6 µM (inactive)
GI50 (EKVX): 39.9 µM (inactive)
GI50 (KM12): 36.6 µM (inactive)
GI50 (SW-620): 28.3 µM (inactive)
GI50 (HCT-15): 41.5 µM
GI50 (OVCAR-8): 38.3 µM (inactive)
GI50 (UACC-257): 25.6 µM (inactive)
GI50 (LOX IMVI): 32.4 µM (inactive)
GI50 (SNB-75): 10.2 µM (inactive)
GI50 (SNB-19): 37.2 µM (inactive)
GI50 (A498): 21.7 µM (inactive)
GI50 (T47D): 10.8 µM (inactive)
GI50 (OVCAR-5): > 100 µM (inactive)
GI50 (Malme-3M): 45.1 µM (inactive)
GI50 (OVCAR-4): 30.2 µM (inactive)
